Values quoted from earlier work in patent US20030008851A1, “Acne treatment including dual-package system” (priority 2001, published 2003).

Tests used:
[1] = not given; remark: listed apart in the source

SMILES | solubility in water (in words) (water) | solubility in alcohol (in words) [1] | pH of the solution produced (1 gram in about 460 ml of water at room temperature) | volume of water dissolving 1 gram (1 gram, water, room temperature) | solubility in water (water, room temperature) | volume of alcohol dissolving 1 gram ([1]; 1 gram)
O=C(OOC(=O)c1ccccc1)c1ccccc1 [Benzoyl peroxide] | sparingly soluble | sparingly soluble |  |  |  | 
O=C(O)c1ccccc1O [Salicylic acid] | sparingly soluble |  | 2.4 | about 460 ml | about 0.2 % by weight | about 2.7 ml
